{
  "source": "patent US20240300959A1",
  "about": "“BALASUBRAMIDE DERIVATIVE AND USE THEREOF IN PREPARATION OF MEDICINE FOR TREATING ACUTE LUNG INJURY” (Guangdong Pharmaceutical University, priority 2023, published 2024)",
  "key": {"[1]": {"tested_on": "TNF-α in RAW264.7 macrophages stimulated by lipopolysaccharide", "experiment": "TNF-α ELISA in cell supernatant of LPS-stimulated RAW264.7 macrophages", "type": "cell-based, mice", "description": "RAW264.7 cells were inoculated into a 96-well plate at a density of 1×10^5 per well. When the cell density was 70%-80%, 18 balasubramide derivatives were prepared into 10 mM working solutions with DMSO, respectively, and then used to pretreat mononuclear macrophages RAW264.7 of mice at a final concentration of 10 μM. After 3 h, lipopolysaccharide (LPS, 100 ng/mL) was added into all wells for action for 2 h except for a control group. A supernatant was collected for later use, and the expression level of an inflammatory factor TNF-α in the cell supernatant was detected according to an operation instruction of a commercial ELISA kit.\nRAW264.7 cells were inoculated into a 96-well plate at a density of 1×10^5 per well. When the cell density was 70%-80%, the RAW264.7 cells were pretreated with (+)3C-20 ([…]). After 3 h, lipopolysaccharide (LPS, 100 ng/mL) was added into all wells for action for 2 h except for a control group. The expression level of an inflammatory factor TNF-α in a cell supernatant was detected according to an operation instruction of a commercial ELISA kit, and the cell viability at different administration concentrations of (+)3C-20 was determined according to an operation instruction of a CCK-8 kit."}, "[2]": {"tested_on": "mice with acute lung injury caused by intratracheal instillation of lipopolysaccharide", "experiment": "Intratracheal LPS acute lung injury: wet/dry ratio, BALF TNF-α, total protein, myeloid cells", "type": "in vivo, ICR mice", "description": "Grouping and administration of animals: 50 male ICR mice were randomly divided into 3 groups according to the body weight, including a control group, a model group and a 50 mg/kg (+)3C-20 group. Drug preparation, administration and a modeling method were the same as those in Example 7. After continuous preadministration for 3 days, intratracheal instillation of LPS was performed for modeling 2 h after the last administration. 6 h after the modeling, a part of the mice were directly sacrificed, the whole lungs were taken out and weighed to obtain wet weight, then the whole lungs were dried at 60° C. for 24 h and weighed to obtain dry weight, and the wet-dry weight ratio of each group was calculated by statistics. 6 h after the modeling, the remaining mice were subjected to bronchoalveolar lavage, and then bronchoalveolar lavage fluid (BALF) was collected. A lavage process was as follows: After being sacrificed, the mice were placed faceup to fix the four limbs, the skin of the neck was cut, the trachea was separated and cut at an appropriate position to obtain a small incision, a 16G needle with a flat tip was inserted into the trachea at a depth of 1 cm, the trachea and the needle stem were tied tightly to obtain an indwelling needle, 400 μL of precooled PBS was sucked with a 1 mL syringe and slowly pushed into the trachea, suction was performed for two times, the operations above were repeated, and recovered BALF was combined with a recovery efficiency of 70%-80%. The collected BALF was subjected to centrifugation at 500×g at 4° C. for 5 min, a supernatant was collected, the content level of total protein in the supernatant was determined by a BCA kit, and the expression level of an inflammatory factor TNF-α in the BALF supernatant was detected according to an operation instruction of a commercial ELISA kit.\nA bottom precipitate obtained after the centrifugation of the BALF was resuspended with 100 μL of an ACK buffer (Thermo A10492 stomatocytosis agent), evenly blown and subjected to standing for 1 min. Stomatocytosis was stopped with 1 mL of an FACS buffer (PBS containing 1% of FBS), centrifugation was performed at 500×g at 4° C. for 5 min, a supernatant was discarded, 100 μL of an FACS buffer was added, 1 μL of a CD16/CD32 Fc Block antibody (1:100) was added, and incubation was performed in the dark at 4° C. for 30 min. 1 mL of an FACS buffer was added, centrifugation was performed at 500×g at 4° C. for 5 min, a supernatant was discarded, and 100 μL of an FACS buffer was added for resuspension. Various fluorescent dyes (including mCD45-PerCP-Cy5.5, mCD11b-FITC, mF4/80-APC, mLy6C-PE, mLy6G-BV421 and FVS-780) were added at a ratio of 1:300, a single dye tube of each of the fluorescent dyes was prepared according to the above ratio, and incubation was performed in the dark at 4° C. for 30 min. 1 mL of an FACS buffer was added for resuspension, centrifugation was performed at 500×g at 4° C. for 5 min, and a supernatant was discarded. Washing was repeated for one time, centrifugation was performed to remove a supernatant, 500 μL of 1% paraformaldehyde was added for fixing in the dark for 30 min, centrifugation was performed at 500×g at 4° C. for 5 min, and a supernatant was discarded. 200 μL of an FACS buffer was added for resuspension, and a resulting suspension was stored in the dark at 4° C. Before loading on a machine, the stained cell suspension was diluted with an FACS buffer, transferred to a flow tube and detected according to an operation procedure of a CytoFlex flow cytometer. A flow gate strategy was as follows: Gain was first regulated according to each single dye tube, and compensation was properly regulated, where CD45^+, CD11b^+ and F4/80^+ were macrophages, CD45^+, CD11b^+ and Ly6G^+ were neutrophils, and CD45^+, CD11b^+ and Ly6C^+ were monocytes."}, "[3]": {"conditions": "50 mg/kg i.p. 3 days, 6 h after intratracheal LPS, model group = 100"}},
  "note": "Read-outs that look alike come from different tables or passages of the source.",
  "data": [
    {"smiles": "O=C(CCc1ccc(C(F)(F)F)cc1)O[C@@H]1C(=O)NCCc2c([nH]c3ccccc23)[C@H]1c1ccc(C(F)(F)F)cc1", "note": "[(+)-3C-20]", "values": [
      {"measurement": "anti-inflammatory activity (inhibition of expression of TNF-α in macrophages), in words", "setting": "[1]; 10 μM, RAW264.7, LPS", "result": "better anti-inflammatory activity than other derivatives"},
      {"measurement": "activity at 0.1 µM", "setting": "[1]; Mus musculus, RAW264.7, 0.1 μM, RAW264.7, LPS 100 ng/mL, read-out: Percentage of TNF-α in a model group (%)", "result": "99.83 ± 0.89", "unit": "%"},
      {"measurement": "activity at 0.5 µM", "setting": "[1]; Mus musculus, RAW264.7, 0.5 μM, RAW264.7, LPS 100 ng/mL, read-out: Percentage of TNF-α in a model group (%)", "result": "98.1 ± 1.56", "unit": "%"},
      {"measurement": "activity at 1 µM", "setting": "[1]; Mus musculus, RAW264.7, 1 μM, RAW264.7, LPS 100 ng/mL, read-out: Percentage of TNF-α in a model group (%)", "result": "94.38 ± 0.45", "unit": "%"},
      {"measurement": "activity at 2 µM", "setting": "[1]; Mus musculus, RAW264.7, 2 μM, RAW264.7, LPS 100 ng/mL, read-out: Percentage of TNF-α in a model group (%)", "result": 88.6, "unit": "%"},
      {"measurement": "activity at 5 µM", "setting": "[1]; Mus musculus, RAW264.7, 5 μM, RAW264.7, LPS 100 ng/mL, read-out: Percentage of TNF-α in a model group (%)", "result": 83.7, "unit": "%"},
      {"measurement": "activity at 10 µM", "setting": "[1]; Mus musculus, RAW264.7, 10 μM, RAW264.7, LPS 100 ng/mL (Table 3), read-out: Percentage of TNF-α in a model group (%)", "result": 51.2, "unit": "%"},
      {"measurement": "activity at 20 µM", "setting": "[1]; Mus musculus, RAW264.7, 20 μM, RAW264.7, LPS 100 ng/mL, read-out: Percentage of TNF-α in a model group (%)", "result": 39.4, "unit": "%"},
      {"measurement": "activity at 10 µM", "setting": "[1]; Mus musculus, RAW264.7, 2 h, 10 μM, 3 h pretreatment, LPS 100 ng/mL 2 h, RAW264.7, read-out: Percentage of TNF-α in a model group (%)", "result": "39.9 ± 2.88", "unit": "%"},
      {"measurement": "effective dose for inhibiting the expression of TNF-α in the macrophages", "setting": "[1]; RAW264.7, LPS", "result": "2 to 20", "unit": "µM"},
      {"measurement": "Level of TNF-α in BALF", "setting": "[2]; [3]", "result": 43.31},
      {"measurement": "Level of total protein in BALF", "setting": "[2]; [3]", "result": 73.44},
      {"measurement": "Wet/Dry ratio", "setting": "[2]; 50 mg/kg i.p. 3 days, lung, 6 h after intratracheal LPS", "result": 4.28},
      {"measurement": "Macrophage (%)", "setting": "[2]; 50 mg/kg i.p., BALF flow cytometry CD45+ CD11b+ F4/80+", "result": 0.82, "unit": "%"},
      {"measurement": "Monocyte (%)", "setting": "[2]; 50 mg/kg i.p., BALF flow cytometry CD45+ CD11b+ Ly6C+", "result": 4.13, "unit": "%"},
      {"measurement": "Neutrophil (%)", "setting": "[2]; 50 mg/kg i.p., BALF flow cytometry CD45+ CD11b+ Ly6G+", "result": 10.47, "unit": "%"}
    ]}
  ]
}
